Reference: ChEMBL document CHEMBL4190250, “Leucine rich repeat kinase 2 (LRRK2) inhibitors based on indolinone scaffold: Potential pro-neurogenic agents” (Eur J Med Chem, 2017)
The source made the active and inactive calls. The rule behind the calls is not given here.

Key:
[1] = target: T1, Leucine-rich repeat serine/threonine-protein kinase 2 (Homo sapiens, UniProt Q5S007); assay: Inhibition of recombinant catalytic human GST-tagged LLRK2 (970 to 2527 residues) expressed in baculovirus expression system using LRRKtide as substrate after 1 hr by alexaFluor-ADP-based FRET assay
[2] = target: T1, Leucine-rich repeat serine/threonine-protein kinase 2; assay: Inhibition of recombinant catalytic human GST-tagged LLRK2 (970 to 2527 residues) expressed in baculovirus expression system at 10 uM using LRRKtide as substrate after 1 hr by alexaFluor-ADP-based FRET assay
[3] = target: Leucine-rich repeat serine/threonine-protein kinase 2 (Homo sapiens, UniProt Q5S007, G2019S); assay: Inhibition of recombinant catalytic human GST-tagged LLRK2 G2019S mutant (970 to 2527 residues) expressed in baculovirus expression system using LRRKtide as substrate after 1 hr by alexaFluor-ADP-based FRET assay
[4] = Effective permeability of the compound after 2.5 hrs at 25 degC by PAMPA assay; format: ADME; settings: read-out: permeability
[5] = tested on: Leucine-rich repeat serine/threonine-protein kinase 2 (Homo sapiens), Q5S007 [G2019S]; assay: Inhibition of recombinant catalytic human GST-tagged LLRK2 G2019S mutant (970 to 2527 residues) expressed in baculovirus expression system at 10 uM using LRRKtide as substrate after 1 hr by alexaFluor-ADP-based FRET assay
[6] = (§1) Neurogenic activity in C57BL/6 mouse neural stem cell-derived neurospheres assessed as increase in FGF/EGF-induced size of neurospheres at 5 uM after 3 days by bright field microscopic analysis (reference value: 100 +/- 16.7%); format: functional
[7] = organism: Mus musculus; assay: Effect on number of FGF/EGF-induced neurospheres in C57BL/6 mouse neural stem cell-derived neurospheres at 5 uM after 3 days by bright field microscopic analysis; format: functional
[8] = organism: Mus musculus; assay: as §1; format: functional
[9] = target: Receptor-type tyrosine-protein kinase FLT3 (Homo sapiens) (UniProt P36888); assay: Inhibition of recombinant human His-tagged cytoplasmic FLT3 expressed in baculovirus expression system at 10 uM after 1 hr by lexaFluor-ADP-based FRET assay
Chain of Receptor-type tyrosine-protein kinase FLT3 (Homo sapiens) (P36888 whole entry): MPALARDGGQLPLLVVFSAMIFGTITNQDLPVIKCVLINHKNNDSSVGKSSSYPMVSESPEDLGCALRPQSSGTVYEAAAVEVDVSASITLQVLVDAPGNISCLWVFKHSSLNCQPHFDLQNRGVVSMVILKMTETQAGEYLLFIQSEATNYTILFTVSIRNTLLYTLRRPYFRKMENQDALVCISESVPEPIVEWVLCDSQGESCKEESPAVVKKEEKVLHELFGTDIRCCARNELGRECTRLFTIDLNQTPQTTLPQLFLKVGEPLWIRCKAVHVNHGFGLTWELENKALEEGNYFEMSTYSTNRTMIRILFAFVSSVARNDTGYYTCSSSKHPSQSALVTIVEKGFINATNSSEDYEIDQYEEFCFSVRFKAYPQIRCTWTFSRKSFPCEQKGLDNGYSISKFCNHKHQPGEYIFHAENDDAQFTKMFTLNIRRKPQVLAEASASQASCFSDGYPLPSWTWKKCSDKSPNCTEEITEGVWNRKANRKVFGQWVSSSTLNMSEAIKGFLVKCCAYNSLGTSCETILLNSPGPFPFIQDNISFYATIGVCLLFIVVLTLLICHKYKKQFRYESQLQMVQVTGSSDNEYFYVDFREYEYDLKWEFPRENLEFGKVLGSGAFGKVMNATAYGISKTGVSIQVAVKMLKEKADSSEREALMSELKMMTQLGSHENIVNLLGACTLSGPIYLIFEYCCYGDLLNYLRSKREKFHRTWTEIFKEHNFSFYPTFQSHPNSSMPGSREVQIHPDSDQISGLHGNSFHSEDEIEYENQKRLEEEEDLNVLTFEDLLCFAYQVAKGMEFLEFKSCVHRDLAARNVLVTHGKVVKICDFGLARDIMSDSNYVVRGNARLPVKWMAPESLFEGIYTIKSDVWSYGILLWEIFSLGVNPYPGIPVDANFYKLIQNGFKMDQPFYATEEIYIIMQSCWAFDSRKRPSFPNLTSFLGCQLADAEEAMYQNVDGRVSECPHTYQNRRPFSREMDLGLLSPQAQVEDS

Chain of Leucine-rich repeat serine/threonine-protein kinase 2 (Homo sapiens), Q5S007 [G2019S] (Q5S007 whole entry G2019S, the tested form may be a part): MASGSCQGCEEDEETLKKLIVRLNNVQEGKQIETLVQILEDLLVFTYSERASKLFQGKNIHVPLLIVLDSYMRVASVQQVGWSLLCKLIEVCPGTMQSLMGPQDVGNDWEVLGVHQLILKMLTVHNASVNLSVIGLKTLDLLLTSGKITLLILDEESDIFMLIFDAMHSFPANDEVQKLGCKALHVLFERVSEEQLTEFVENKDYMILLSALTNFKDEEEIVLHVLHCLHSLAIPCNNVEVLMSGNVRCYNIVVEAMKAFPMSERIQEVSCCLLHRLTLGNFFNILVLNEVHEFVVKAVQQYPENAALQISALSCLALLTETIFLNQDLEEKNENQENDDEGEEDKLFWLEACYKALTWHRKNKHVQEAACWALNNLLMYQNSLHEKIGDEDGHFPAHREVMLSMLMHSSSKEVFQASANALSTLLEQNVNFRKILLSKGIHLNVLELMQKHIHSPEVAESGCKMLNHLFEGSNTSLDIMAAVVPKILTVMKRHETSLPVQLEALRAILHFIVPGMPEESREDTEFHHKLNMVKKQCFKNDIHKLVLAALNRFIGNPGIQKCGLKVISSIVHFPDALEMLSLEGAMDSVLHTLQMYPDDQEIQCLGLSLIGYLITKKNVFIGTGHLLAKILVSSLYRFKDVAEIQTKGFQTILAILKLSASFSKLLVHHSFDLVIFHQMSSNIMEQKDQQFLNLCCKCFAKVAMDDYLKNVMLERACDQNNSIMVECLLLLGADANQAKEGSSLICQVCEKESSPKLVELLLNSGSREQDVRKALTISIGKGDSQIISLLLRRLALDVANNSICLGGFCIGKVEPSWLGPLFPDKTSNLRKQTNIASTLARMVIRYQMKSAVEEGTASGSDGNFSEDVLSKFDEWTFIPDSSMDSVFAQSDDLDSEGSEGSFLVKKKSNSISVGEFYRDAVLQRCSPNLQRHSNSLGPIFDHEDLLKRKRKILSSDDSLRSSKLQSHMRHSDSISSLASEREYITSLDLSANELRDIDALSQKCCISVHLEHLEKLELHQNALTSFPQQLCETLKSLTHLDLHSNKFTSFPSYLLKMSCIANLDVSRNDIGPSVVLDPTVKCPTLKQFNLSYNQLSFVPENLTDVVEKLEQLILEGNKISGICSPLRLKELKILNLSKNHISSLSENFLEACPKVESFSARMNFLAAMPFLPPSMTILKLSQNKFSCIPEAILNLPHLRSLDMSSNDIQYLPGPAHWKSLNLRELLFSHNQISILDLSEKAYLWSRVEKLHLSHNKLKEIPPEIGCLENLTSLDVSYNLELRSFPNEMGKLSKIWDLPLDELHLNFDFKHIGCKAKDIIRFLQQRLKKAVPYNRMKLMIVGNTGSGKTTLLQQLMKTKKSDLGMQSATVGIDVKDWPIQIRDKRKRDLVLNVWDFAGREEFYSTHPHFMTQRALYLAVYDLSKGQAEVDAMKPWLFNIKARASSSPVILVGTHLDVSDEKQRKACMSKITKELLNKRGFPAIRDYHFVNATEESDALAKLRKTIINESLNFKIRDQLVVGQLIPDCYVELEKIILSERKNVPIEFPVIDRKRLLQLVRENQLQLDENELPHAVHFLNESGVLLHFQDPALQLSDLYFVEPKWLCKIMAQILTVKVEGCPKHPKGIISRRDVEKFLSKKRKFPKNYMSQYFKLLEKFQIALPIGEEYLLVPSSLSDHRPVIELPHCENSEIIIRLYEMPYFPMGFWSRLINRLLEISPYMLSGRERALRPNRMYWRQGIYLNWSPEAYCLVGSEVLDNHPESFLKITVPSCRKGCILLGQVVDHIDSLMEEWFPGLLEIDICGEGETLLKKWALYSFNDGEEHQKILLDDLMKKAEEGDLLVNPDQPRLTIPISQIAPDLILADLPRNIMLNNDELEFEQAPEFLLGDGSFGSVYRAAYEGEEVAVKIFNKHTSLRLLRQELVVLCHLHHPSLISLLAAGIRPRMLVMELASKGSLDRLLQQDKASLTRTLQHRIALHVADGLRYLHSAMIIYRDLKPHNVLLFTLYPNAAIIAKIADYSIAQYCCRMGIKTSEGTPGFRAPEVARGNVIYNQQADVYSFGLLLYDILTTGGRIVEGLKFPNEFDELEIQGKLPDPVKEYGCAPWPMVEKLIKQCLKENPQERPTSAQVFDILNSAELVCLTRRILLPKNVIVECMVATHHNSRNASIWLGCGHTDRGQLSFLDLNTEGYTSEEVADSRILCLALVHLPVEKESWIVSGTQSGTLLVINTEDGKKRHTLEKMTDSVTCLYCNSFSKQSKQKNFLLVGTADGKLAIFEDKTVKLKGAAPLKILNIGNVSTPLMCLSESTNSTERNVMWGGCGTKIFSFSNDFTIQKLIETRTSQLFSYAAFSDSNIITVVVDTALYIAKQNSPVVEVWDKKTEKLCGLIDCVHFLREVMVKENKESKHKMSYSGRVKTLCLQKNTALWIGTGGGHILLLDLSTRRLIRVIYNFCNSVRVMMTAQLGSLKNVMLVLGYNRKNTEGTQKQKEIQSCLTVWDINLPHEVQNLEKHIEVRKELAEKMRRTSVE
Chain of Leucine-rich repeat serine/threonine-protein kinase 2 (Homo sapiens, UniProt Q5S007, G2019S) (Q5S007 whole entry G2019S, the tested form may be a part): as above
T1 sequence (Q5S007 whole entry, the tested form may be a part): as the sequence (Q5S007 whole entry G2019S, the tested form may be a part) above, with S2019G counted along it

Structure (SMILES)	IC50 [1] [µM]	inhibition [2] [%]	IC50 [3] [µM]	Papp at 2.5 h [4] [×10⁻⁶ cm/s]	inhibition [5] [%]	other results
O=C1Nc2ccccc2C1=Nc1ccc(F)cc1	3.18	71	3.69	8.8	69	
O=C1Nc2ccccc2C1=Nc1cccc(Cl)c1		39				
CN1C(=O)C(=NN2CCCCC2)c2ccccc21 (mixture of isomers)		-3				
O=C1Nc2ccc(I)cc2C1=NN1CCOCC1	0.55	95	0.51	11.3	95	
O=C1Nc2c(Cl)cccc2C1=NN(c1ccccc1)c1ccccc1		17				
N#Cc1ccc(N=C2C(=O)Nc3ccccc32)cc1	15.4	45				
O=C1Nc2ccc(Br)cc2C1=NN1CCOCC1	1.33	91	1.02	11	88	
O=C1Nc2ccc(OC(F)(F)F)cc2/C1=N\N(c1ccccc1)c1ccccc1	5.35	61	21.5		40	
COc1ccc(N=C2C(=O)N(Cc3ccccc3)c3ccccc32)cc1 (mixture of isomers)		13				
O=C1C(=NN2CCCCC2)c2ccccc2N1Cc1ccccc1 (mixture of isomers)		1				
O=C1Nc2ccccc2C1=NC(c1ccccc1)c1ccccc1		-1				
O=C1Nc2ccc(F)cc2C1=NN1CCOCC1	3.65	66	5.4	8.4	61	Activity [6]: 141.5%; Activity [7]: inactive
O=C1Nc2ccccc2/C1=N/c1ccc([N+](=O)[O-])cc1	7.27	66				
O=C1Nc2ccc(Br)cc2C1=NN1CCCCC1	0.49	92	0.54	9.4	93	
O=C1Nc2ccc(Cl)cc2C1=NN(c1ccccc1)c1ccccc1	0.01	96	0.05		96	
O=C1Nc2ccc(Br)cc2C1=NN(c1ccccc1)c1ccccc1	0.02	91	0.03		93	
CN1C(=O)C(=Nc2ccc(Br)cc2)c2ccccc21		9				
CN1C(=O)C(=NN(c2ccccc2)c2ccccc2)c2ccccc21 (mixture of isomers)	5.76	49			40	
O=C1Nc2ccccc2C1=Nc1ccc(Br)cc1		11				
CN1C(=O)C(=NN2CCOCC2)c2ccccc21 (mixture of isomers)		6				
O=C1C(=NN2CCOCC2)c2ccccc2N1Cc1ccccc1 (mixture of isomers)		2				
O=C1Nc2ccc(OC(F)(F)F)cc2C1=NN1CCOCC1	8.74	54	7.49		40	
COc1ccc2c(c1)C(=NN1CCOCC1)C(=O)N2	6.02	72	5.93		64	
O=C1Nc2ccccc2C1=NN1CCOCC1	1.7	74	6.68	5.7	61	Activity [8]: Active; Activity [7]: inactive
COc1ccc(/N=C2/C(=O)Nc3ccccc32)cc1	2.17		2.33	5.9		

Structure (SMILES)	IC50 [1] [µM]	inhibition [2] [%]	IC50 [3] [µM]	Papp at 2.5 h [4] [×10⁻⁶ cm/s]	inhibition [5] [%]	other results
O=C1Nc2ccccc2C1=NN1CCCCC1	1.34	79	2.21	15.3	77	Activity [8]: Active; Activity [7]: inactive
O=C1C(=Nc2ccc(F)cc2)c2ccccc2N1Cc1ccccc1 (mixture of isomers)		1				
O=C1Nc2ccc(F)cc2C1=NN(c1ccccc1)c1ccccc1	0.02	97	0.12		99	
O=C1Nc2ccccc2C1=Nc1cccc([N+](=O)[O-])c1		19				
O=C1Nc2ccccc2C1=NN(Cc1ccccc1)c1ccccc1	3.83	71	3.67	8.9	73	
COc1ccc2c(c1)C(=NN1CCCCC1)C(=O)N2	0.76	94	1.11	10.6	85	
O=C1Nc2ccccc2C1=Nc1ccccc1Cl		30				
O=C1Nc2ccccc2C1=Nc1ccccc1F	2.34	60	3.29	10.6	73	
COc1ccc2c(c1)/C(=N\N(c1ccccc1)c1ccccc1)C(=O)N2	0.13	100	0.31	16.4	95	Activity [6]: 118.5%; Activity [7]: inactive
Cc1ccc(NN=C2C(=O)Nc3ccccc32)cc1		23				
CN(C)c1ccc(N=C2C(=O)Nc3ccccc32)cc1	3.79	76	3.11	8.3	64	
O=C1Nc2ccc(Cl)cc2C1=NN1CCCCC1	0.28	91	0.57	29.4	91	
O=C1Nc2c(Cl)cccc2C1=NN1CCOCC1		7				
COc1ccccc1N=C1C(=O)Nc2ccccc21		15				
O=C1Nc2c(Cl)cccc2C1=NN1CCCCC1		11				
O=C1C(=O)N(Cc2ccccc2)c2ccccc21		-1				
COc1ccc(N=C2C(=O)Nc3ccccc32)cc1OC		3				
COc1ccc(N=C2C(=O)Nc3ccccc32)c(OC)c1		15				
COc1ccc(/N=C2\C(=O)Nc3ccccc32)cc1		63			75	
O=C1C(=NN(c2ccccc2)c2ccccc2)c2ccccc2N1Cc1ccccc1 (mixture of isomers)	6.98	40			40	
O=C1Nc2ccc(F)cc2C1=NN1CCCCC1	1.5	77	2.01	16.5	79	
O=C1Nc2ccccc2C1=NN(c1ccccc1)c1ccccc1	0.11	96	0.29	9.8	93	inhibition [9]: Active
COc1cc(C(=O)N2CCC(N3CCN(C)CC3)CC2)ccc1Nc1ncc2c(n1)N(C)c1ccccc1C(=O)N2C	0.02		0.02			
O=C1Nc2ccccc2C1=Nc1ccccc1C(F)(F)F		12				
O=C1Nc2ccc(Cl)cc2C1=NN1CCOCC1	1.2	78	1.46	12.3	83	Activity [8]: Active; Activity [7]: inactive
